Experimental data taken from BindingDB's records for doi:10.1021/acs.jmedchem.1c00124 (Hemoshear Therapeutics, 2021).

Experiments:
[1] = Time-dependent inhibition of CYP2C19 in human liver microsomes using S-mephenytoin as substrate preincubated for 30 mins
[2] = Time-dependent inhibition of CYP2C8 in human liver microsomes using amodiaquine as substrate preincubated for 30 mins
[3] = Direct inhibition of CYP2D6 in human liver microsomes using bufuralol as substrate
[4] = Direct inhibition of CYP2C19 in human liver microsomes using S-mephenytoin as substrate
[5] = Time-dependent inhibition of CYP2D6 in human liver microsomes using bufuralol as substrate preincubated for 30 mins
[6] = Time-dependent inhibition of CYP1A2 in human liver microsomes using Phenacetin as substrate preincubated for 30 mins
[7] = Direct inhibition of CYP2C9 in human liver microsomes using diclofenac as substrate
[8] = Time-dependent inhibition of CYP2C9 in human liver microsomes using diclofenac as substrate preincubated for 30 mins
[9] = Direct inhibition of CYP2C8 in human liver microsomes using amodiaquine as substrate
[10] = Direct inhibition of CYP1A2 in human liver microsomes using Phenacetin as substrate

Measured: IC50

CCC(C)(C)C(=O)O [2,2-DIMETHYLBUTYRATE]
> 10 mM: all assays above
